Test results from patent US20090105301A1, “9A-SUBSTITUTED AZALIDES FOR THE TREATMENT OF MALARIA” (priority 2006, published 2009).
In brackets after ≈: the same amount, converted by molar mass.

Assays:
[1] = system: P. falciparum D6 (CDC/Sierra Leone I, D-6); assay: In vitro screening protocol I, [3H]-hypoxanthine incorporation, D6; assay type: cell-based, Plasmodium falciparum; conditions: In vitro screening protocol I, P. falciparum D6; for IC50: Plasmodium falciparum, read-out: IC50 D6
In short: (§1)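 Asexual blood-stage P. falciparum was cultured in human A+ erythrocytes at 37 °C under 5% CO2/5% O2, and growth was measured by [3H]-hypoxanthine incorporation over 72 h total. TM91C235 was prescreened at 25,000, 2,500 and 25 ng/ml in folate-free medium. D-6 and W-2 IC50s came from 11-point two-fold dilutions by logistic fit.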

P. falciparum TM91C235 = assay: In vitro screening protocol I, [3H]-hypoxanthine incorporation, TM91C235; assay type: cell-based, Plasmodium falciparum; conditions: In vitro screening protocol I, P. falciparum TM91C235; for IC50: Plasmodium falciparum, read-out: IC50 TM91C235
[2] = system: P. falciparum W2 (CDC/Indochina III, W-2); assay: In vitro screening protocol I, [3H]-hypoxanthine incorporation, W2; assay type: cell-based, Plasmodium falciparum; conditions: In vitro screening protocol I, P. falciparum W2; for IC50: Plasmodium falciparum, read-out: IC50 W2
In short: as §1

[3] = system: Plasmodium falciparum strain W2; assay: In vitro screening protocol II, [3H] hypoxanthine incorporation IC50 assay, W2; assay type: cell-based; conditions: P. falciparum W2; for IC50: Plasmodium falciparum
Description: (§2) The protocol described here is a modification of the in vitro screening protocol I and the details of the methodology are given below.
(§3) Plasmodium falciparum strains 3D7A and W2.
(§4) The culture medium comprised RPMI 1640 with 25 mM HEPES, sodium bicarbonate and glutamine (GIBCO™ cat. ref.: 52400), supplemented with 10% of pooled human sera AB (Bioreclamation HMSRM-AB)) and HT supplement (0.15 mM hypoxanthine and 24 μM thymidine), (GIBCO™ cat. ref.: 41065). Human sera were decomplemented 30 min. at 56° C., aliquoted and stored frozen at −20° C. until use in this culture medium.
(§5) This culture medium (“complete medium”) was usually prepared fresh just before use and pre-warmed to 37° C.
(§6) Red blood cells AB− stock suspensions were prepared from whole blood bags coming from incomplete blood donation, provided by the Spanish Red Cross (<25 days after sampling). This “whole blood” was aliquoted and stored at 4° C.
(§7) To prepare red blood cells for the assay, the whole blood was centrifuged and washed 3 times with RPMI without serum. The upper phase, containing white blood cells was removed. The washed red blood cells were kept as a 50% suspension in complete medium. The prepared cells were stored at 4° C. and were employed in the assay at any time up to 4 days after preparation.
(§8) Test compounds were dissolved at 2 mg/ml in 100% DMSO on the day of the assay. If necessary, complete dissolution was achieved by gentle heating (the mixture was heated at a temperature <37° C.) and sonication (sonication bath).
(§9) For IC50 determinations, 10 serial 2-fold dilutions were prepared in complete medium in the presence of a constant amount of DMSO. Any obvious signs of insolubility of the stock solutions in 100% DMSO or precipitation when these solutions were diluted in assay media, were recorded.
(§10) Plasmodium falciparum strains were maintained in complete medium at 5% of hematocrit in continuous culture using a method adapted from Trager W. and Jensen J. B. (Human malaria parasites in continuous culture Science 193 (4254) (1976) 673-675) and Trager W. (Cultivation of malaria parasites Methods Cell Biol. 45 (1994) 7-26).
(§11) The parasitemia was calculated by counting the percentage of parasitized erythrocytes by optical microscopy. Thin films of blood were made every day from each culture flask, fixed with methanol and stained for 10 min. in Giemsa (Merck, cat ref.: 1.09204) at 10% in buffered water pH 7.2. The glass slides were observed and counted with an optical microscope (Nikon, Eclipse E200) equipped with a 100× immersion oil objective.
(§12) The culture was maintained at 5% of hematocrit, with a daily change of medium and was diluted when parasitemia had reached about 5%.
(§13) [^3H] Hypoxanthine incorporation assay was conducted using a method adapted from Desjardins R. E. et al. (Quantitative assessment of antimalarial activity in vitro by a semiautomated microdilution technique. Antimicrob. Agents Chemother., 16 (6) (1979) 710-718). The assays were performed in 96 wells flat bottom microplates.
(§14) 1. Serial dilutions of each test compound (25 μl of a 5× solution/well) were deposited in one row of assay microtiter plate. Compounds of this invention were tested in this assay. Chloroquine and Azithromycin were used as control compounds for each assay.
(§15) 2. […] 100 μl of the resulting suspension was distributed into each well of columns 1-11 of assay microtiter plate leading to a final volume of 125 μl per well, at 1.2% of hematocrit and 0.4% of parasitemia/well.
(§16) 3. In each plate, 2 columns were reserved for control wells: • Column 11 (comprising wells A11-H11): Positive control wells: Untreated PRBCs to compare with cultures treated with test compounds. • Column 12 (comprising wells A12-H12): • Background value wells: Uninfected RBCs—blank control to obtain the background reading from RBCs without parasites (at 1.2% of hematocrite value).
(§17) 4. The plates were incubated at 37° C. under low oxygen atmosphere. […]

Plasmodium falciparum = conditions: non-immune patients, as compared to controls; cited from earlier work
Plasmodium vivax = conditions: non-immune patients, as compared to controls; cited from earlier work
Plasmodium cynomolgi = conditions: rhesus monkey; cited from earlier work
[4] = system: Plasmodium falciparum strain 3D7A; assay: In vitro screening protocol II, [3H] hypoxanthine incorporation IC50 assay, 3D7A; assay type: cell-based; conditions: P. falciparum 3D7A; for IC50: Plasmodium falciparum
Description: as §2, §3, §4, §5, §6, §7, §8, §9, §10, §11, §12, §13, §14, §15, §16, §17

Plasmodium berghei = conditions: cited from earlier work
[5] = system: Plasmodium yoelii nigeriensis; conditions: cited from earlier work

Molecule: CC[C@H]1OC(=O)[C@H](C)[C@@H](O[C@H]2C[C@@](C)(OC)[C@@H](O)[C@H](C)O2)[C@H](C)[C@@H](O[C@@H]2O[C@H](C)C[C@H](N(C)C)[C@H]2O)[C@](C)(O)C[C@@H](C)CN(C)[C@H](C)[C@@H](O)[C@]1(C)O [azithromycin, reference compound]
- IC50 [1]: 1 to 2.5 µg/mL (≈ 1.34 to 3.34 µM)
- IC50 (P. falciparum TM91C235): 3.5 to 5 µg/mL (≈ 4.67 to 6.68 µM)
- IC50 [2]: 2.8 to 3.5 µg/mL (≈ 3.74 to 4.67 µM)
- IC50 [3]: 2.5 to 2.8 µg/mL (≈ 3.34 to 3.74 µM)
- prophylactic efficacy (Plasmodium falciparum): 71.6%
- prophylactic efficacy (Plasmodium vivax): 98.9%
- efficacy in monkey model (Plasmodium cynomolgi): active

Molecule: CC[C@H]1OC(=O)[C@H](C)[C@@H](O)[C@H](C)[C@@H](O[C@@H]2O[C@H](C)C[C@H](N(C)C)[C@H]2O)[C@](C)(O)C[C@@H](C)CN(CCCNCc2ccnc3ccccc23)[C@H](C)[C@@H](O)[C@]1(C)O [Example 15, 9a-{3-[(Quinolin-4-yl-methyl)amino]propyl}-3-O-decladinosyl-9-deoxo-9-dihydro-9a-aza-9a-homoerythromycin A]
- IC50 D6 [1]: B (100 < X ≦ 200)
- IC50 TM91C235 (P. falciparum TM91C235): C (200 < X ≦ 1000)
- IC50 W2 [2]: B (100 < X ≦ 200)
- IC50 W2 [3]: C (200 < X ≦ 1000)
- IC50 3D7A [4]: C (200 < X ≦ 1000)

Molecule: CC[C@H]1OC(=O)[C@H](C)[C@@H](O[C@H]2C[C@@](C)(OC)[C@@H](O)[C@H](C)O2)[C@H](C)[C@@H](O[C@@H]2O[C@H](C)C[C@H](N(C)C)[C@H]2O)[C@](C)(O)C[C@@H](C)CN(CCCNCc2cccc3ccccc23)[C@H](C)[C@@H](O)[C@]1(C)O [Example 8, 9a-{3-[(Naphtalen-1-yl-methyl)amino]propyl}-9-deoxo-9-dihydro-9a-aza-9a-homoerythromycin A]
- IC50 [1]: < 0.1 µg/mL
- IC50 (P. falciparum TM91C235): < 0.1 µg/mL
- IC50 [2]: < 0.1 µg/mL
- IC50 [3]: < 0.1 µg/mL
- IC50 [4]: 0.1 to 0.2 µg/mL (≈ 0.107 to 0.215 µM)

Molecule: CC(=O)O.CC(=O)O.CC(=O)O.CCC1OC(=O)C(C)C(OC2CC(C)(OC)C(O)C(C)O2)C(C)C(OC2OC(C)CC(N(C)C)C2O)C(C)(O)CC(C)CN(CCCNc2ccnc3cc(Cl)ccc23)C(C)C(O)C1(C)O (stereo not shown) [Example 77]
- IC50 W2 [3]: A (X ≦ 100)
- IC50 3D7A [4]: A (X ≦ 100)

Molecule: CC[C@H]1OC(=O)[C@H](C)[C@@H](O)[C@H](C)[C@@H](O)[C@](C)(O)C[C@@H](C)CN(CCCNc2ccnc3cc(Cl)ccc23)[C@H](C)[C@@H](O)[C@]1(C)O [Example 56]
- IC50 [3]: 0.1 to 0.2 µg/mL (≈ 0.157 to 0.313 µM)
- IC50 [4]: < 0.1 µg/mL

Molecule: CC[C@H]1OC(=O)[C@H](C)[C@@H](O[C@H]2C[C@@](C)(OC)[C@@H](O)[C@H](C)O2)[C@H](C)[C@@H](O[C@@H]2O[C@H](C)C[C@H](N(C)C)[C@H]2O)[C@](C)(O)C[C@@H](C)CN(CCCNCC2CCNc3ccccc32)[C@H](C)[C@@H](O)[C@]1(C)O (stereo partly shown) [Example 55, 9a-{3-[(1,2,3,4-tetrahydro-quinolin-4-yl-methyl)amino]propyl}-9-deoxo-9-dihydro-9a-aza-9a-homoerythromycin A]
- IC50 [3]: < 0.1 µg/mL
- IC50 [4]: 0.2 to 1 µg/mL (≈ 0.213 to 1.07 µM)

Molecule: CCC1OC(=O)C(C)C(OC2CC(C)(OC)C(O)C(C)O2)C(C)C(OC2OC(C)CC(N(C)C)C2O)C(C)(O)CC(C)CN(CCCNC(=O)c2cc(Cl)ccc2[N+](=O)[O-])C(C)C(O)C1(C)O.O=CO (stereo not shown) [Example 66, 9a-(3-{[(5-Chloro-2-nitrophenyl)carbonyl]amino}propyl)-9-deoxo-9-dihydro-9a-aza-9a-homoerythromycin A Formiate Salt]
- IC50 W2 [3]: C (200 < X ≦ 1000)
- IC50 3D7A [4]: D (1000 < X ≦ 2500)

Molecule: midecamycinin
- activity in mouse model (Plasmodium berghei): active
- activity in mouse model [5]: active
- efficacy in monkey model (Plasmodium cynomolgi): no efficacy
